# A melting point compilation (Tetko et al.; mined from patent text by program, amines drawn as free bases though some values may be those of a salt)
row,Compound,melting point
1,CC(=O)NC1CCCCC1CCC(=O)O (stereo unspecified),116 to 121 °C
2,C=C(CN(C)C)C(O)c1ncc2c(c1O)COC2c1ccc(OC)cc1 (stereo unspecified),169 to 170 °C
3,O=C(O)c1ncc(C(c2ccccc2)c2ccccc2)cc1C(c1ccccc1)c1ccccc1,172 to 175 °C
4,CCOC(=O)c1nc(-c2ccc(Cl)cc2F)cc(N)c1OCC(F)(F)F,123 to 135 °C
5,CCOC(=O)c1cc(F)c(N2CCC(NC(=O)OC(C)(C)C)C2)cc1F (stereo unspecified),98 to 100 °C
6,CCCCOc1cc(/C=C(\OCC)C(=O)O)ccc1OCCc1ccc(OS(C)(=O)=O)c(Cl)c1,113 °C
7,C=C(C)C(=O)OCCOc1ccc(OCCOC(=O)c2ccc(O)c(Cl)c2)cc1,105 to 106 °C
8,Cc1cc(-c2cccnc2)cc2ccc(=O)[nH]c12,236 °C
9,CCOC(=O)c1ncn(-c2cc(C(F)(F)F)ccc2[N+](=O)[O-])c1C,140 °C
10,COC(=S)CCc1cc(Oc2ccc(C(F)(F)F)cc2Cl)ccc1[N+](=O)[O-],61 to 63 °C
11,FC(F)(F)c1nc2cc(Cl)c(Cl)cc2nc1-c1nc2ccccc2o1,157 to 158 °C
12,CC1(C)CC(=O)C(Cc2ccc(Cl)cc2)C(=O)C1,188 to 190 °C
13,COc1ccc(CNC(=O)c2nccnc2N)cc1,93 to 95 °C
14,CC#Cc1[nH]c(=O)n2c1CN(C)Cc1cc(F)ccc1-2,219 to 220 °C
15,CC(=O)OC[C@H]1OC(OC(C)=O)[C@H](OC(C)=O)[C@@H](F)[C@@H]1OC(C)=O (stereo partly specified),115 to 121 °C
16,Cc1cc[nH]c(=O)c1NC(=O)c1ccccc1,264 to 265 °C
17,Nc1ncnc2c1ncn2[C@H]1C=C[C@@H](O)CC1 (racemic),181 to 183 °C
18,COc1ccc(-c2nc(SCC(F)(F)F)[nH]c2-c2ccc(OC)cc2)cc1,119 to 120 °C
19,C=C(C(=O)OC)[C@@H](O)c1ccccc1,48 °C
20,CCCN(CCC)Cc1noc(-c2ncn3c2[C@@H]2CCCN2C(=O)c2c(Cl)cccc2-3)n1,155 to 158 °C
21,O=C(CS(=O)(=O)c1ccccc1)OC1CCCCC1,35 to 38 °C
22,COc1ccc(C(=O)Nc2c(Cl)cncc2Cl)c2cc(C)oc12,233 °C

row,Compound,melting point
1,CN(C)CCCC(=O)Nc1nc2c(s1)-c1c(cnn1-c1ccccc1)CC2,165 to 166 °C
2,COC1=C(OC)C(=O)C(CCC(C)CCC(=O)O)=C(C)C1=O (stereo unspecified),58 to 61 °C
3,COc1ccc2c(c1)c1c3c(c(-c4c(Cl)cccc4OC)cc1n2CCO)C(=O)NC3=O,264 to 268 °C
4,CCCN(C)S(=O)(=O)c1nnc(NC(=O)N(C)C)s1,152 to 153 °C
5,CC1(C)SC(=S)N(Cc2cccs2)C(=O)C1NC(=O)c1ccc(Cl)cc1 (stereo unspecified),176 to 177 °C
6,O=C(NCCN1CCOCC1)N1CCN2C(=O)OC(c3ccccc3)(c3ccccc3)C2C1 (stereo unspecified),174 to 175 °C
7,CC(C)CCCC(C)C1CCC2(C#N)C3C(O)CC4C(C)(C)C(OC(=O)c5ccccc5)CCC4(C)C3CCC12C (stereo unspecified),270 to 271 °C
8,O=C(NCCCc1cccs1)n1cc(F)c(=O)[nH]c1=O,131 to 133 °C
9,CCC(=O)NCC1CC1c1c(Cl)ccc2nn(C)cc12 (stereo unspecified),152 to 153 °C
10,O=C1N[C@H]2OC=N[C@@]12c1ccccc1,159 to 160 °C
11,CN1CCC(Oc2ccc([N+](=O)[O-])cc2)(c2ccccc2)CC1,136 to 138 °C
12,N#Cc1ccccc1F,98 to 100 °C
13,CCOP(=O)(CCCCCCCOc1nc(-c2ccccc2)c(-c2ccccc2)n1-c1ccccc1)OCC,76 to 77 °C
14,Cc1ccc(NC(C)CC(=O)NC(=O)OC(C)(C)C)cc1 (stereo unspecified),84 to 85 °C
15,Cc1cc(C)c(COc2cccnc2NC(=N)Nc2ccc(Cl)cc2)c(C)c1,169 to 171 °C
16,COc1ccc(OC(C)=O)c2ccccc12,51 to 53 °C
17,CC(C)(CO)NC(=O)c1nn(-c2c(F)cc(F)cc2F)c2c1C1CCC2C1 (stereo unspecified),122 to 125 °C
18,N#Cc1cccc(-c2nc(C(N)=O)c3[nH]c(=O)n(-c4ccccc4)c3n2)c1,328 to 330 °C
19,COc1cc(C)nc(-n2cncn2)n1,142 to 143 °C
20,O=C(c1ccc(F)cc1)C1CCN(CCCn2c(=O)sc3ccccc32)CC1,83 °C
21,CN1CCN(CC(=O)N2c3ccccc3C(=S)Nc3cccnc32)CC1,240 to 241 °C
22,COc1ccc(C(=O)N[C@H]2CCN(C)C[C@H]2c2ccc(OC)c(OC)c2)cc1 (relative stereo),223 to 226 °C

row,Compound,melting point
1,Cn1c2cc(Cl)ccc2c2c(=O)[nH]c(-c3ccccc3)nc21,> 300 °C
2,O=[N+]([O-])C1(Cc2ccccc2)CN(Cc2ccccc2)CCN(Cc2ccccc2)C1,66 to 69 °C
3,CN1CC2CCCCC2C1c1noc(=O)[nH]1 (stereo unspecified),102 to 104 °C
4,CC(C)(OCc1coc(-c2ccc(Cl)cc2)n1)C(=O)O,144 to 145 °C
5,CCCc1nc(C)c2c(=O)[nH]c(C)nn12,228 to 231 °C
6,Cc1cccc(NC(=O)N2CCN(CC(=O)N3CC=C(c4cccc(C(F)(F)F)c4)n4ncc(C#N)c43)CC2)c1,138 to 140 °C
7,Cc1c(CC(=O)O)c2cc(OCc3csc(-c4ccccc4)n3)ccc2n1Cc1csc(-c2ccc(Cl)cc2)n1,178 to 180 °C
8,O=C1CC2CSc3sccc3C2=NN1c1ccc(Cl)cc1 (stereo unspecified),134 to 135 °C
9,O=C(O)COCCc1ccc(F)cc1,82 to 85 °C
10,CC(C)Cn1c(CN(C)C(N)=O)nc2c(N)nc3ccccc3c21,223 to 225 °C
11,Cc1cc(Cl)ccc1OC(Cn1cncn1)C(O)C(C)(C)C (stereo unspecified),124 to 126 °C
12,COC(=O)C1CCCN1S(=O)(=O)c1ccc(Cl)c(COc2cccn3c(C(C)=O)c(C)nc23)c1Cl (stereo unspecified),178 °C
13,Cc1cccc2c1nc(-c1cccnc1)n2Cc1c(F)cccc1F,186 to 188 °C
14,O=C1C(Br)=C(Br)C(=O)c2ncccc21,243 to 245 °C
15,O=C(O)CCC(=O)c1ccc(OCCCCN2C(=O)c3ccccc3C2=O)cc1,133 to 134 °C
16,CCCc1nc2c(N)nc3ccc(C)cc3c2s1,147 to 149 °C
17,CC(=O)N[C@@H]1c2cnccc2OC(C)(C)[C@H]1O (relative stereo),208 to 210 °C
18,C[C@H]1C=CC(Sc2ccccc2)=CC[C@H]1O,54 to 56 °C
19,COc1ccc2[nH]c(C)c(C(C)=O)c2c1,156 to 158 °C
20,CC(C)(C)C1COC1(Cn1cncn1)c1ccc(F)cc1 (stereo unspecified),128 °C

# Continued, values first:
row,melting point,Compound
1,108 to 109 °C,O=[N+]([O-])c1cnccc1NCc1ccccc1F
2,203 to 204 °C,COc1cc(C=C2CCN(C(=O)NO)C2=O)cc(OC)c1O
3,94.1 to 94.4 °C,CNC(=O)n1cnc(C)c1Cl
4,208 to 209 °C,O=C1N(O)CCC12CCOc1ccc(F)cc12 (stereo unspecified)
5,104 to 106 °C,CC(C)Oc1cc(CCCOc2cc(CCC(=O)O)n(-c3ccccc3)n2)cc(COc2ccc(Cl)cc2Cl)c1
6,205 to 208 °C,CCN(CC)c1cc(C)nc(-c2ccncc2)n1
7,125 to 126 °C,CCC(C)c1cccc(C(C)CC)c1C(=O)O (stereo unspecified)
8,135 to 138 °C,COC(=O)c1cc(N2CCOCC2)nc(Cl)n1
9,> 300 °C,Cn1c(=O)c2cnc(O)n2c2ccccc21
10,103 to 104 °C,CC(=O)c1sc(N2CCN(CC3CC3)C2=O)nc1C
11,> 250 °C,Cc1nccn1Cc1c(C(=O)O)nc2c(=O)[nH]c3cc(C(F)(F)F)ccc3n12
12,279 to 280 °C,COc1cc(OC)c2c(=O)[nH]c(-c3ccc(N4C[C@@H](C)N(C(C)=O)[C@@H](C)C4)cc3)nc2n1
13,59 to 61 °C,CCCOc1cc([N+](=O)[O-])ccc1N
14,153 to 155 °C,Cn1c(C(F)(F)F)cc(=O)n(-c2cc(OC(=O)Nc3cccc(C(F)(F)F)c3)c(Cl)cc2F)c1=O
15,180 °C,CC(=O)C(O)C1OC(S(=O)(=O)c2ncc(Cl)cn2)C(O)(C(C)=O)C(O)(C(C)=O)C1(O)C(C)=O (stereo unspecified)
16,136 to 139 °C,O=C(O)CC(CSc1nc2ccccc2s1)C(=O)O (stereo unspecified)
17,186 to 187 °C,COC(=O)c1cc(C(=O)OC)cc(N2C(=O)C=CC2=O)c1
18,51 to 51.5 °C,CCCCCCCCCC(=O)COS(=O)(=O)c1ccc(Cl)cc1
19,79 to 80 °C,CC=C(Cl)C(Cl)CC(O)(Cn1cncn1)C1(Cl)CC1 (stereo unspecified)

row,melting point,Compound
1,183 to 185 °C,Cc1ccn(-c2ccc(C(=O)N3Cc4cccnc4Nc4ccccc43)c(C(F)(F)F)c2)n1
2,132 °C,CSc1ccc(C(C)Nc2nc(NC(C)=O)nc(C(F)(F)F)n2)cc1 (stereo unspecified)
3,225 to 230 °C,Cc1ccc(C2(CC(=O)O)CNC(=O)C2)c(C)c1 (stereo unspecified)
4,> 320 °C,O=C(CCN1CCCC1)Nc1ccc2nc3ccc(NC(=O)CCN4CCCC4)cc3c(Cl)c2c1
5,154 to 156 °C,C=Cc1cc(OC(C)=O)cc2nc(-c3ccc(OC(C)=O)c(F)c3)oc12
6,119 to 120 °C,O=Cc1cccn1-c1ccc(C(F)(F)F)cc1Cl
7,156 to 158 °C,CCc1cc2c(c(Sc3ccccc3)cc(=O)n2Cc2ccc(-c3ccccc3-c3nnn(C(c4ccccc4)(c4ccccc4)c4ccccc4)n3)cc2)c(CC)n1
8,258 to 260 °C,CC(C)(C)c1cc2c(n1-c1ccc(O)c(C(=O)O)c1)CCc1ccccc1-2
9,155 to 157 °C,COc1nc2ccccc2nc1NC(=O)N1CCN(c2cc(C)cc(C)c2)CC1
10,75 to 76 °C,C=CCC(O)(Cn1cncn1)C1(Cl)CC1 (stereo unspecified)
11,92 to 95 °C,CCCCNC(=O)[C@@H](C[C@H](O)[C@H](CC1CCCCC1)NC(=O)[C@H](Cc1cscn1)NC(=O)[C@@H](CC(=O)N1CCOCC1)Cc1ccccc1)C(C)(C)O
12,60 to 62 °C,CCOC(=O)Cc1ccc2c(c1)sc1ccccc12
13,85 to 89 °C,CCCCCCCCCCCCCCCCCC(=O)ON1C(C)(C)CC(OC(=O)c2ccccc2)CC1(C)C
14,104 °C,O=S(=O)(Cl)c1cc(S(=O)(=O)Cl)c(Cl)cc1Cl
15,193 to 196 °C,COC(=O)c1ccc(CN2C(=O)CCc3c(CC4SC(=O)NC4=O)ccc(OC)c32)cc1 (stereo unspecified)
16,239 to 241 °C,CS(=O)(=O)c1cc(C(=O)N=C(N)N)ccc1N1CCC(N)CC1
17,166 °C,OCC1NCc2ccsc2-n2cccc21 (stereo unspecified)
18,176 °C,CCOC(=O)C1=C(N)NC(N)=C(C(=O)OCC)C1c1cccc(C#N)c1
